From US11370773B1, “Inhibiting human integrin (alpha-4) (beta-7)” (Morphic Therapeutic, Inc., priority 2019, dated 2022)

The compounds below were run against T1, α4β7 (Homo sapiens, UniProt P13612+P26010) (assay: Cell-based ligand binding assay (LBA), RPMI 8866 cells in competition with soluble MAdCAM-1-Fc). Settings: MAdCAM-1-Fc Dylight 650, flow cytometry, read-out: LB Assay (Example 6) IC50.
T1 construct: α4β7 expressing cells (RPMI-8866); endogenous in cells; host or cells: RPMI 8866
T1 sequence (P13612 34-1032): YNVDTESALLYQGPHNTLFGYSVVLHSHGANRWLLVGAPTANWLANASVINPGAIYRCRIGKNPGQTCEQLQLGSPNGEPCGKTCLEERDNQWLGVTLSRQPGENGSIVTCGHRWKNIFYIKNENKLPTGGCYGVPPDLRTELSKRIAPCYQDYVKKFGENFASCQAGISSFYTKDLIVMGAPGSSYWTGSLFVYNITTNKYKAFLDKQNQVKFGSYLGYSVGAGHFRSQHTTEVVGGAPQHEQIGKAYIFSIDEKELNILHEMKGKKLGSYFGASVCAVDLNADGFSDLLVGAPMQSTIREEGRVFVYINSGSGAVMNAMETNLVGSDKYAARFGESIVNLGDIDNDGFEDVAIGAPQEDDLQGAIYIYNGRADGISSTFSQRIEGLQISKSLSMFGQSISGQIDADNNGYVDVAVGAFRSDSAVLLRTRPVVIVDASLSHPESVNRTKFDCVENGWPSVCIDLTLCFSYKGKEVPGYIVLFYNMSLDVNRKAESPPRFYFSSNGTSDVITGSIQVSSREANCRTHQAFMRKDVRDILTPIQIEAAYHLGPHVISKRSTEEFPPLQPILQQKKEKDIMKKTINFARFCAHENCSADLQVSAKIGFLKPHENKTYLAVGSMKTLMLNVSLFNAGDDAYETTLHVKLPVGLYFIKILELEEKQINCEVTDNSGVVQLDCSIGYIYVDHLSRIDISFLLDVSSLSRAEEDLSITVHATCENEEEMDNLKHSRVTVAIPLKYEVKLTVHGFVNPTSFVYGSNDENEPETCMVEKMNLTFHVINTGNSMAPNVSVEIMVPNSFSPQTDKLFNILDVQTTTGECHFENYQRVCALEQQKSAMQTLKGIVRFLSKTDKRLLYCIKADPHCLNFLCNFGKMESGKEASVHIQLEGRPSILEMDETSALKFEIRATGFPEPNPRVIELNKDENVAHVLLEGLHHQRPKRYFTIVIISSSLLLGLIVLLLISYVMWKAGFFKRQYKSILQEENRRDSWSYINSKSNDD
T1 sequence (P26010 20-798): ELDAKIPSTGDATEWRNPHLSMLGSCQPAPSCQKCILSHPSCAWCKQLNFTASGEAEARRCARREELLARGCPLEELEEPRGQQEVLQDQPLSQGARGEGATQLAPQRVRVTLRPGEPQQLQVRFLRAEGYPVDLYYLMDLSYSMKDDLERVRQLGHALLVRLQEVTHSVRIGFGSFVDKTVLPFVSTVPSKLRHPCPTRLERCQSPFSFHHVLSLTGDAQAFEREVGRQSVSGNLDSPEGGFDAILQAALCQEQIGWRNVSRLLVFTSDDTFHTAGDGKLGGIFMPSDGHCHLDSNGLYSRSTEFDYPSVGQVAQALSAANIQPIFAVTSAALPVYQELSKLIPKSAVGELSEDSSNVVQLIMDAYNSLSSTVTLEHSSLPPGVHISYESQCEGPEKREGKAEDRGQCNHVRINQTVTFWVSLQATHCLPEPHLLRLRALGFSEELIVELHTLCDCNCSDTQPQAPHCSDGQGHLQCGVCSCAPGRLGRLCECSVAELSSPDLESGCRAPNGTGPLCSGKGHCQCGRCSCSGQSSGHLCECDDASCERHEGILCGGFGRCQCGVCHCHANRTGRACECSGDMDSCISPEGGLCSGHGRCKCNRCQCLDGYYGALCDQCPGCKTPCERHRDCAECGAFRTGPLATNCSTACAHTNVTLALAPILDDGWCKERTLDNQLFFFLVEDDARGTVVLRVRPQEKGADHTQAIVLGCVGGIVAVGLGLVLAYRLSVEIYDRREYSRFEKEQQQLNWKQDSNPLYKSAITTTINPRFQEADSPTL
Method: Three in vitro assays were used to examine the α4β7 mechanistic process used by cells: 1) ligand:receptor affinity, 2) the avidity of those interactions on a cell's surface, and 3) how those interactions fare under an imposing force. In Example 5, a Fluorescence Polarization (FP) assay is used to measure compound activity through binding competition with the fluorescein-labeled peptide. In Example 6, the potency of compounds against α4β7 is measured in the cell-based ligand binding assay (LBA), using RPMI 8866 cells incubated with the compound samples in competition with soluble MAdCAM-1 ligand. In Example 7, activity of compounds is evaluated in a cell adhesion assay that mechanistically tests what occurs in vivo when trafficking cells utilize α4β7 to adhere to MAdCAM-1 expressing HEVs of the gut during the extravasation process. In the cell adhesion assay of Example 7, a MAdCAM1-(Fc) is coated on plastic, and α4β7 expressing cells (RPMI-8866) are allowed to adhere to the coated surface in the presence of the test compounds. Next, the force of washing with buffer is applied to cells thereby testing the strength of that adhesion. Unattached cells are removed and the remaining adherent cells are quantified.
5 ul of 33 nM MAdCAM-1-Fc fluorescently labeled with Dylight 650 in 50 mM HEPES pH 7.3, 150 mM sodium chloride, and 1% bovine serum albumin was added to the cells. The samples were incubated for 45 minutes at room temperature, fixed with 0.8% formaldehyde for 30 minutes at room temperature, and washed with 50 mM Tris pH 7.5, 150 mM NaCl, 1 mM EDTA, and 1% bovine serum albumin. Fluorescence intensity for each cell was measured via flow cytometry. Dead cells were excluded from further analysis based on staining with the 780 fixable viability dye. Median fluorescence intensity for Dylight 650 was determined for each sample and concentration-response curves were analyzed for IC50 values using 4-parameter non-linear regression analysis.

SMILES | IC50 [nM]
Cc1cc(F)c(C)c(C)c1-c1cc(C(F)(F)F)c(F)c([C@H](CC(=O)O)NC(=O)[C@H](CC(C)C)n2cc(CCN3CCC3)c(C(F)(F)F)cc2=O)c1F [KT-P2, (3S)-3-(2-(5-(2-(azetidin-1-yl)ethyl)-2-oxo-4-(trifluoromethyl)pyridin-1(2H)-yl)-4-methylpentanamido)-3-(2,4,4′-trifluoro-2′,3′,6′-trimethyl-5-(trifluoromethyl)-[1,1′-biphenyl]-3-yl)propanoic Acid] | 10 to 500
Cc1ccn([C@@H](CC(C)C)C(=O)N[C@H](CC(=O)O)c2cncc(-c3c(C)cccc3C)c2)c(=O)c1 [Example C-28, reference compound] | 10 to 500
Cc1ccn([C@@H](NC(C)C)C(=O)N[C@@H](CC(=O)O)c2cncc(-c3c(C)cccc3C)c2)c(=O)c1 [Example C-7, reference compound] | ≤ 10
Cc1cc(-c2c(C)ccc(F)c2C)cc([C@H](CC(=O)O)NC(=O)C(CC(C)C)n2cc(CCN3CCC3)c(C(F)(F)F)cc2=O)c1F (single isomer, unassigned) [AF-P2] | ≤ 10
Cc1ccc(F)c(C)c1-c1cc(C2CC2)c(F)c([C@H](CC(=O)O)NC(=O)[C@H](CC(C)C)n2cc(CCN3CCC3)c(C(F)(F)F)cc2=O)c1F [HH-P2, (3S)-3-(2-(5-(2-(azetidin-1-yl)ethyl)-2-oxo-4-(trifluoromethyl)pyridin-1(2H)-yl)-4-methylpentanamido)-3-(5-cyclopropyl-2,3′,4-trifluoro-2′,6′-dimethyl-[1,1′-biphenyl]-3-yl)propanoic Acid] | ≤ 10
Cc1cc(-c2c(C)cc(F)cc2C)cc([C@H](CC(=O)O)NC(=O)[C@H](CC(C)C)n2cc(CCN(C)C)cc(C(F)F)c2=O)c1F [I-P2, (3S)-3-(4,4′-difluoro-2′,5,6′-trimethyl-[1,1′-biphenyl]-3-yl)-3-(2-(3-(difluoromethyl)-5-(2-(dimethylamino)ethyl)-2-oxopyridin-1(2H)-yl)-4-methylpentanamido)propanoic Acid] | ≤ 10
Cc1cc(C)c(-c2cc(C3CC3)c(F)c([C@H](CC(=O)O)NC(=O)[C@H](CC(C)C)n3cc(CCN4CCC4)c(C(F)(F)F)cc3=O)c2F)c(C)c1 [HM-P2, (3S)-3-(2-(5-(2-(azetidin-1-yl)ethyl)-2-oxo-4-(trifluoromethyl)pyridin-1(2H)-yl)-4-methylpentanamido)-3-(5-cyclopropyl-2,4-difluoro-2′,4′,6′-trimethylbiphenyl-3-yl)propanoic Acid] | ≤ 10

Second part, the compound after the results:

IC50 [nM] | SMILES
10 to 500 | Cc1cc(C)c(-c2cc(C)c(F)c([C@H](CC(=O)O)NC(=O)[C@H](CC(C)C)n3cc(CCCN(C)C)c(C(F)(F)F)cc3=O)c2F)c(C)c1F [IW-P2, (3S)-3-(2-(5-(3-(dimethylamino)propyl)-2-oxo-4-(trifluoromethyl)pyridin-1(2H)-yl)-4-methylpentanamido)-3-(2,3′,4-trifluoro-2′,4′,5,6′-tetramethyl-[1,1′-biphenyl]-3-yl)propanoic Acid]
10 to 500 | Cc1cc(C)c(-c2cc(C(F)(F)F)c(F)c([C@H](CC(=O)O)NC(=O)[C@H](CC(C)C)n3cc(CCN(C)C)c(C(F)(F)F)cc3=O)c2F)c(C)c1 [IF-P2, (3S)-3-(2,4-difluoro-2′,4′,6′-trimethyl-5-(trifluoromethyl)-[1,1′-biphenyl]-3-yl)-3-(2-(5-(2-(dimethylamino)ethyl)-2-oxo-4-(trifluoromethyl)pyridin-1(2H)-yl)-4-methylpentanamido)propanoic Acid]
10 to 500 | Cc1cc(C)c(-c2cc(C(F)(F)F)c(F)c([C@H](CC(=O)O)NC(=O)[C@H](CC(C)C)n3cc(CCN4CCC4)c(C(F)(F)F)cc3=O)c2F)c(C)c1 [IG-P2, (3S)-3-(2-(5-(2-(azetidin-1-yl)ethyl)-2-oxo-4-(trifluoromethyl)pyridin-1(2H)-yl)-4-methylpentanamido)-3-(2,4-difluoro-2′,4′,6′-trimethyl-5-(trifluoromethyl)biphenyl-3-yl)propanoic Acid]
10 to 500 | Cc1cc(C2CC2)cc(C)c1-c1cc(C(F)(F)F)c(F)c([C@H](CC(=O)O)NC(=O)[C@H](CC(C)C)n2cc(CCCN(C)C)c(C(F)(F)F)cc2=O)c1F [HU-P2, (3S)-3-(4′-cyclopropyl-2,4-difluoro-2′,6′-dimethyl-5-(trifluoromethyl)-[1,1′-biphenyl]-3-yl)-3-(2-(5-(3-(dimethylamino)propyl)-2-oxo-4-(trifluoromethyl)pyridin-1(2H)-yl)-4-methylpentanamido)propanoic Acid]
≤ 10 | Cc1cc(F)cc(C)c1-c1cc(C(F)(F)F)c(F)c([C@H](CC(=O)O)NC(=O)[C@H](CC(C)C)n2cc(CCCN(C)C)c(C(F)(F)F)cc2=O)c1F [HW-P2, (3S)-3-(2-(5-(3-(dimethylamino)propyl)-2-oxo-4-(trifluoromethyl)pyridin-1(2H)-yl)-4-methylpentanamido)-3-(2,4,4′-trifluoro-2′,6′-dimethyl-5-(trifluoromethyl)-[1,1′-biphenyl]-3-yl)propanoic Acid]
10 to 500 | Cc1cc(C)c(-c2cc(C(F)(F)F)c(F)c([C@H](CC(=O)O)NC(=O)[C@H](CC(C)C)n3cc(CCCN(C)C)c(C(F)(F)F)cc3=O)c2F)c(C)c1 [HZ-P2, (3S)-3-(2,4-difluoro-2′,4′,6′-trimethyl-5-(trifluoromethyl)biphenyl-3-yl)-3-(2-(5-(3-(dimethylamino)propyl)-2-oxo-4-(trifluoromethyl)pyridin-1(2H)-yl)-4-methylpentanamido)propanoic Acid]
